Experimental data as given in patent US10160724B2, “Tetrahydropyridine derivatives and their use as antibacterial agents” (Dong-A St Co., Ltd., priority 2016, dated 2018).
Values after ≈ are worked out from the molar mass of the structure shown. Like-named read-outs stand apart in the source and are kept apart here.

How the values were obtained:
Assay in all cases: In vitro antibiotic activity, agar dilution method (Mueller-Hinton agar, NCCLS)
Assay type in all cases: cell-based
E. coli ATCC 25922 = conditions: Escherichia coli
Summary of the method: (§1)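 MICs determined by agar dilution on Mueller-Hinton agar following NCCLS M7 guidance, against E. coli ATCC 25922, K. pneumoniae ATCC 29665 and P. aeruginosa PAO1.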

K. pneumoniae ATCC 29665 = conditions: Klebsiella pneumoniae
Summary of the method: as §1

P. aeruginosa PAO1 = conditions: Pseudomonas aeruginosa
Summary of the method: as §1

[1] = ATCC25922, agar dilution, Mueller-Hinton agar, read-out: MIC for E. coli ATCC 25922
[2] = ATCC29665, agar dilution, Mueller-Hinton agar, read-out: MIC for K. pneumoniae ATCC 29665
[3] = PAO1, agar dilution, Mueller-Hinton agar, read-out: MIC for P. aeruginosa PAO1

Row | SMILES | MIC (E. coli ATCC 25922; [1]) | MIC (K. pneumoniae ATCC 29665; [2]) | MIC (P. aeruginosa PAO1; [3]) | MIC (E. coli ATCC 25922; ATCC25922, read-out: MIC for E. coli ATCC 25922) | MIC (K. pneumoniae ATCC 29665; ATCC29665, read-out: MIC for K. pneumoniae ATCC 29665) | MIC (P. aeruginosa PAO1; PAO1, read-out: MIC for P. aeruginosa PAO1)
1 | CC(CCN1CC=C(c2ccc(C#CC#CCCO)cc2)CC1)(C(=O)NO)S(C)(=O)=O (stereo not drawn) [Example 47, N-hydroxy-4-(4-(4-(6-hydroxyhexa-1,3-diyn-1-yl)phenyl)-3,6-dihydropyridin-1(2H)-yl)-2-methyl-2-(methylsulfonyl)butanamide] | < 1 µg/mL | 1 to 8 µg/mL (≈ 2.25 to 18 µM) | < 1 µg/mL | – | – | –
2 | CC(CCN1CC=C(c2ccc(-c3ccc(C#N)cc3)cc2)CC1)(C(=O)NO)S(C)(=O)=O (stereo not drawn) [Example 66, 4-(4-(4′-cyano-[1,1′-biphenyl]-4-yl)-3,6-dihydropyridin-1(2H)-yl)-N-hydroxy-2-methyl-2-(methylsulfonyl)butanamide] | < 1 µg/mL | 1 to 8 µg/mL (≈ 2.2 to 17.6 µM) | > 16 µg/mL | – | – | –
3 | CN(C)c1ccc(C#Cc2ccc(C3=CCN(CCC(C)(C(=O)NO)S(C)(=O)=O)CC3)cc2)cc1 (stereo not drawn) [Example 1, 4-(4-(4-((4-(dimethylamino)phenyl)ethynyl)phenyl)-3,6-dihydropyridin-1(2H)-yl)-N-hydroxy-2-methyl-2-(methylsulfonyl)butanamide] | – | – | – | > 16 µg/mL | > 16 µg/mL | > 16 µg/mL
4 | CC(CCN1CC=C(c2ccc(C#CCCCCl)cc2)CC1)(C(=O)NO)S(C)(=O)=O (stereo not drawn) [Example 14, 4-(4-(4-(5-chloropent-1-yn-1-yl)phenyl)-3,6-dihydropyridin-1(2H)-yl)-N-hydroxy-2-methyl-2-(methylsulfonyl)butanamide] | < 1 µg/mL | 1 to 8 µg/mL (≈ 2.21 to 17.7 µM) | 1 to 8 µg/mL (≈ 2.21 to 17.7 µM) | – | – | –
